According to patent publication US20090123389A1, “Methods for modulating Th17 cell development in the treatment and prevention of cellulite” (priority 2007, published 2009):

Test system: STAT3
Assay: Kinetics of STAT3 phosphorylation in developing Th17 cells
Type: cell-based, mouse
Details: TGFβ plus IL-6
Description: FIG. 11A is a series of graphs depicting representative histograms displaying the kinetics of STAT3 phosphorylation in developing Th17 cells treated with or without HF. Resting naïve T cells (shaded peak), T cells activated in the presence of TGFβ plus IL-6 (TGFβ/IL-6) treated with 10 nM MAZ1310, TGFβ/IL-6-activated T cells treated with 5 nM HF, TGFβ/IL-6-activated T cells treated with 10 nM HF. T cells were fixed at the indicated times and intracellular phospho-STAT3 staining was performed.
Whole cell lysates were generated at the indicated times following activation, and western blotting was performed using the indicated antibodies.
FACS analyses and sorting: All cell surface staining was performed in FACS buffer (PBS/2% FCS/0.1% NaN3) and antibodies were incubated with cells on ice for 20-30 minutes. Cells were washed with FACS buffer and fixed with FACS buffer plus 1% paraformaldehyde prior to data acquisition. For phospho-STAT3 intracellular staining, stimulated T cells cultured with or without TGFβ plus IL-6 for the indicated times were harvested on ice and fixed in PBS plus 2% paraformaldehyde for 10 minutes at 37° C. […] All FACS data was acquired on a FACSCalibur flow cytometer (BD Pharmingen) and analyzed using FlowJo software (Treestar, Inc., Ashland, Oreg.). […]

Compound: O=C(CC1NCCCC1O)Cn1cnc2cc(Br)c(Cl)cc2c1=O (racemic) [HF, 7-bromo-6-chloro-3-[3-(3-hydroxy-2-piperidinyl)-2-oxopropyl]-4(3H)-quinazolinone]
- STAT3 activation during the first 6 hours of Th17 differentiation (5 or 10 nM HF): did not interfere
- maintenance of STAT3 phosphorylation (beginning around 12 hours-post activation): decreased the maintenance of STAT3 phosphorylation
